Assay results taken from patent publication EP2766361B1, “8-CARBAMOYL-2-(2,3-DISUBSTITUTED PYRID-6-YL)-1,2,3,4-TETRAHYDROISOQUINOLINE DERIVATIVES AS APOPTOSIS-INDUCING AGENTS FOR THE TREATMENT OF CANCER AND IMMUNE AND AUTOIMMUNE DISEASES” (priority 2011, dated 2013).

These molecules were tested on mouse FL5.12 cells transfected with Bcl-xL (assay: FL5.12 cellular assay (cell viability, CellTiter-Glo)). Conditions: IL-3-depleted, 3% FBS assay media, 24 hours, read-out: FL5.12 Bcl-xL, -IL3, EC50.
Assay type: cell-based
Experimental: Cell viability was assayed using the CellTiter-Glo assay (Promega Corp., Madison, WI) according to the manufacturer instructions. Individual determinations were the result of duplicate values. […] Table 2. In Vitro Data
`O=C(Nc1nc2ccccc2s1)c1cccc2c1CN(c1ccc(-c3cnn(CC45CC6CC(C4)CC(N4CCS(=O)(=O)CC4)(C6)C5)c3)c(C(=O)O)n1)CC2` [Example 33, 6-[8-(1,3-benzothiazol-2-ylcarbamoyl)-3,4-dihydroisoquinolin-2(1H)-yl]-3-(1-{[3-(1,1-dioxidothiomorpholin-4-yl)tricyclo[3.3.1.1^3,7]dec-1-yl]methyl}-1H-pyrazol-4-yl)pyridine-2-carboxylic acid] was tested, and the EC50 was over 1000 nM.
`Cc1c(-c2ccc(N3CCc4cccc(C(=O)Nc5nc6ccccc6s5)c4C3)nc2C(=O)O)cc(C#N)n1CCC12CC3CC(CC(C3)C1)C2` [Example 34, 6-[8-(1,3-benzothiazol-2-ylcarbamoyl)-3,4-dihydroisoquinolin-2(1H)-yl]-3-{5-cyano-2-methyl-1-[2-(tricyclo[3.3.1.1^3,7]dec-1-yl)ethyl]-1H-pyrrol-3-yl}pyridine-2-carboxylic acid] was tested, and the EC50 was 150 nM.
`Cc1c(-c2ccc(N3CCc4cccc(C(=O)Nc5nc6ccccc6s5)c4C3)nc2C(=O)NS(C)(=O)=O)cc(C#N)n1CC12CC3CC(CC(C3)C1)C2` [Example 35, N-(1,3-benzothiazol-2-yl)-2-{5-[5-cyano-2-methyl-1-(tricyclo[3.3.1.1^3,7]dec-1-ylmethyl)-1H-pyrrol-3-yl]-6-[(methylsulfonyl)carbamoyl]pyridin-2-yl}-1,2,3,4-tetrahydroisoquinoline-8-carboxamide] gave an EC50 of 1 nM.
With `Cc1c(-c2ccc(N3CCc4cccc(C(=O)Nc5nc6ccccc6s5)c4C3)nc2C(=O)NS(=O)(=O)C2CC2)cc(C#N)n1CC12CC3CC(CC(C3)C1)C2` [Example 36, N-(1,3-benzothiazol-2-yl)-2-{5-[5-cyano-2-methyl-1-(tricyclo[3.3.1.1^3,7]dec-1-ylmethyl)-1H-pyrrol-3-yl]-6-[(cyclopropylsulfonyl)carbamoyl]pyridin-2-yl}-1,2,3,4-tetrahydroisoquinoline-8-carboxamide] the EC50 was 0.8 nM.
Work on `COC12CC3CC(CC(Cn4ncc(-c5ccc(N6CCc7cccc(C(=O)Nc8nc9ccccc9s8)c7C6)nc5C(=O)NS(C)(=O)=O)c4C)(C3)C1)C2` [Example 37, N-(1,3-benzothiazol-2-yl)-2-{5-(1-{[3-methoxytricyclo[3.3.1.1^3,7]dec-1-yl]methyl}-5-methyl-1H-pyrazol-4-yl)-6-[(methylsulfonyl)carbamoyl]pyridin-2-yl}-1,2,3,4-tetrahydroisoquinoline-8-carboxamide] yielded an EC50 of 3 nM.
`COC12CC3(C)CC(C)(CC(Cn4ncc(-c5ccc(N6CCc7cccc(C(=O)Nc8nc9ccccc9s8)c7C6)nc5C(=O)O)c4C)(C3)C1)C2` [Example 38, 6-[8-(1,3-benzothiazol-2-ylcarbamoyl)-3,4-dihydroisoquinolin-2(1H)-yl]-3-(1-{[3-methoxy-5,7-dimethyltricyclo[3.3.1.1^3,7]dec-1-yl]methyl}-5-methyl-1H-pyrazol-4-yl)pyridine-2-carboxylic acid] gave an EC50 of 0.1 nM.
With `COC12CC3CC(CC(Cn4ncc(-c5ccc(N6CCc7cccc(C(=O)Nc8nc9ccccc9s8)c7C6)nc5C(=O)NS(=O)(=O)N5CCOCC5)c4C)(C3)C1)C2` [Example 39, N-(1,3-benzothiazol-2-yl)-2-{5-(1-{[3-methoxytricyclo[3.3.1.1^3,7]dec-1-yl]methyl}-5-methyl-1 H-pyrazol-4-yl)-6-[(morpholin-4-ylsulfonyl)carbamoyl]pyridin-2-yl}-1,2,3,4-tetrahydroisoquinoline-8-carboxamide] the EC50 was 0.6 nM.
In the case of `COC12CC3CC(CC(Cn4ncc(-c5ccc(N6CCc7cccc(C(=O)Nc8nc9ccccc9s8)c7C6)nc5C(=O)NS(=O)(=O)C(F)(F)F)c4C)(C3)C1)C2` [Example 40, N-(1,3-benzothiazol-2-yl)-2-[5-(1-{[3-methoxytricyclo[3.3.1.1^3,7]dec-1-yl]methyl}-5-methyl-1H-pyrazol-4-yl)-6-{[(trifluoromethyl)sulfonyl]carbamoyl}pyridin-2-yl]-1,2,3,4-tetrahydroisoquinoline-8-carboxamide], the EC50 is reported as 47 nM.
`COC12CC3CC(CC(Cn4ncc(-c5ccc(N6CCc7cccc(C(=O)Nc8nc9ccccc9s8)c7C6)nc5C(=O)NS(=O)(=O)C5CC5)c4C)(C3)C1)C2` [Example 41] showed an EC50 of 0.4 nM.
`[2H]C1([2H])c2c(cccc2C(=O)Nc2nc3ccccc3s2)CCN1c1ccc(-c2cnn(CC34CC5CC(CC(C5)C3)C4)c2C)c(C(=O)O)n1` [Example 44, 6-[8-(1,3-benzothiazol-2-ylcarbamoyl)-1,1-dideutero-3,4-dihydroisoquinolin-2(1H)-yl]-3-[5-methyl-1-(tricyclo[3.3.1.1^3,7]dec-1-ylmethyl)-1H-pyrazol-4-yl]pyridine-2-carboxylic acid] was tested, and the EC50 was 0.3 nM.
Work on `N#Cc1c(NC23CC4CC(CC(C4)C2)C3)cccc1-c1ccc(N2CCc3cccc(C(=O)Nc4nc5ccccc5s4)c3C2)nc1C(=O)O` [Example 47, 6-[8-(1,3-benzothiazol-2-ylcarbamoyl)-3,4-dihydroisoquinolin-2(1H)-yl]-3-{2-cyano-3-[tricyclo[3.3.1.1^3,7]dec-1-ylamino]phenyl}pyridine-2-carboxylic acid] yielded an EC50 of 54 nM.
In the case of `N#Cc1c(SC23CC4CC(CC(C4)C2)C3)cccc1-c1ccc(N2CCc3cccc(C(=O)Nc4nc5ccccc5s4)c3C2)nc1C(=O)O` [Example 48, 6-[8-(1,3-benzothiazol-2-ylcarbamoyl)-3,4-dihydroisoquinolin-2(1H)-yl]-3-{2-cyano-3-[tricyclo[3.3.1.1^3,7]dec-1-ylsulfanyl]phenyl}pyridine-2-carboxylic acid], the EC50 is reported as 8 nM.
`Cc1c(NC(=O)C23CC4CC(CC(C4)C2)C3)cccc1-c1ccc(N2CCc3cccc(C(=O)Nc4nc5ccccc5s4)c3C2)nc1C(=O)O` [Example 50, 6-[8-(1,3-benzothiazol-2-ylcarbamoyl)-3,4-dihydroisoquinolin-2(1H)-yl]-3-(2-methyl-3-{[tricyclo[3.3.1.1^3,7]dec-1-ylcarbonyl]amino}phenyl)pyridine-2-carboxylic acid] was tested, and the EC50 was over 1000 nM.
With `Cc1c(-c2ccc(N3CCc4cccc(C(=O)Nc5nc6ccccc6s5)c4C3)nc2C(=O)O)cccc1S(=O)(=O)NC12CC3CC(CC(C3)C1)C2` [Example 51, 6-[8-(1,3-benzothiazol-2-ylcarbamoyl)-3,4-dihydroisoquinolin-2(1H)-yl]-3-{2-methyl-3-[tricyclo[3.3.1.1^3,7]dec-1-ylsulfamoyl]phenyl}pyridine-2-carboxylic acid] the EC50 was 164 nM.
Work on `Cc1c(-c2ccc(N3CCc4cccc(C(=O)Nc5nc6ccccc6s5)c4C3)nc2C(=O)O)cnn1CC12CC3CC(C1)CC(OCC1CCOCC1)(C3)C2` [Example 53, 6-[8-(1,3-benzothiazol-2-ylcarbamoyl)-3,4-dihydroisoquinolin-2(1H)-yl]-3-(5-methyl-1-{[3-(tetrahydro-2H-pyran-4-ylmethoxy)tricyclo[3.3.1.1^3,7]dec-1-yl]methyl}-1H-pyrazol-4-yl)pyridine-2-carboxylic acid] yielded an EC50 of 4 nM.
For `Cc1c(C(=O)NC23CC4CC(CC(C4)C2)C3)cccc1-c1ccc(N2CCc3cccc(C(=O)Nc4nc5ccccc5s4)c3C2)nc1C(=O)O` [Example 54, 6-[8-(1,3-benzothiazol-2-ylcarbamoyl)-3,4-dihydroisoquinolin-2(1H)-yl]-3-{2-methyl-3-[tricyclo[3.3.1.1^3,7]dec-1-ylcarbamoyl]phenyl}pyridine-2-carboxylic acid], the EC50 was over 1000 nM.
In the case of `Cc1c(-c2ccc(N3CCc4cccc(C(=O)Nc5nc6ccccc6s5)c4C3)nc2C(=O)O)cccc1N(C)CC12CC3CC(CC(C3)C1)C2` [Example 55, 6-[8-(1,3-benzothiazol-2-ylcarbamoyl)-3,4-dihydroisoquinolin-2(1H)-yl]-3-(2-methyl-3-{methyl[tricyclo[3.3.1.1^3,7]dec-1-ylmethyl]amino}phenyl)pyridine-2-carboxylic acid], the EC50 is reported as 47 nM.
For `COCCC1(Cn2cc(-c3ccc(N4CCc5cccc(C(=O)Nc6nc7ccccc7s6)c5C4)nc3C(=O)O)cn2)C2CC3CC(C2)CC1C3` (centres unmarked) [Example 56, 6-[8-(1,3-benzothiazol-2-ylcarbamoyl)-3,4-dihydroisoquinolin-2(1H)-yl]-3-(1-{[2-(2-methoxyethyl)tricyclo[3.3.1.1^3,7]dec-2-yl]methyl}-1H-pyrazol-4-yl)pyridine-2-carboxylic acid], the EC50 was 17 nM.
With `Cc1c(-c2ccc(N3CCc4cccc(C(=O)Nc5nc6ccccc6s5)c4C3)nc2C(=O)O)nnn1CC12CC3CC(CC(C3)C1)C2` [Example 57, 6-[8-(1,3-benzothiazol-2-ylcarbamoyl)-3,4-dihydroisoquinolin-2(1H)-yl]-3-[5-methyl-1-(tricyclo[3.3.1.1^3,7]dec-1-ylmethyl)-1H-1,2,3-triazol-4-yl]pyridine-2-carboxylic acid] the EC50 was 12 nM.
`COC12CC3CC(CC(Cn4c(C#N)cc(-c5ccc(N6CCc7cccc(C(=O)Nc8nc9ccccc9s8)c7C6)nc5C(=O)O)c4C)(C3)C1)C2` [Example 58, 6-[8-(1,3-benzothiazol-2-ylcarbamoyl)-3,4-dihydroisoquinolin-2(1H)-yl]-3-(5-cyano-1-{[3-methoxytricyclo[3.3.1.1^3,7]dec-1-yl]methyl}-2-methyl-1H-pyrrol-3-yl)pyridine-2-carboxylic acid] was tested, and the EC50 was 0.3 nM.
`N#Cc1c(-c2ccc(N3CCc4cccc(C(=O)Nc5nc6ccccc6s5)c4C3)nc2C(=O)O)cccc1S(=O)(=O)C12CC3CC(CC(C3)C1)C2` [Example 60, 6-[8-(1,3-benzothiazol-2-ylcarbamoyl)-3,4-dihydroisoquinolin-2(1H)-yl]-3-[2-cyano-3-(tricyclo[3.3.1.1^3,7]dec-1-ylsulfonyl)phenyl]pyridine-2-carboxylic acid] gave an EC50 of 55 nM.
For `Cc1c(-c2ccc(N3CCc4cccc(C(=O)Nc5nc6ccccc6s5)c4C3)nc2C(=O)O)ccnc1N(C)C1CCCCCCC1` [Example 61, 6-[8-(1,3-benzothiazol-2-ylcarbamoyl)-3,4-dihydroisoquinolin-2(1H)-yl]-2'-[cyclooctyl(methyl)amino]-3'-methyl-3,4'-bipyridine-2-carboxylic acid], the EC50 was 10 nM.
With `Cc1c(-c2ccc(N3CCc4cccc(C(=O)Nc5nc6ccccc6s5)c4C3)nc2C(=O)O)cnn1CC1C2CC3CC(C2)CC1C3` (centres unmarked) [Example 62, 6-[8-(1,3-benzothiazol-2-ylcarbamoyl)-3,4-dihydroisoquinolin-2(1H)-yl]-3-[5-methyl-1-(tricyclo[3.3.1.1^3,7]dec-2-ylmethyl)-1H-pyrazol-4-yl]pyridine-2-carboxylic acid] the EC50 was 0.8 nM.
